Experimental findings from PMC9506254, “Self-Emulsifying Formulations to Increase the Oral Bioavailability of 4,6,4′-Trimethylangelicin as a Possible Treatment for Cystic Fibrosis” (Pharmaceutics, 2022) are described below.

A short description of data set [1]: Solubility of TMA in oils, surfactants, co-surfactants/co-solvents. To be noted: 25 °C, 24 h, n = 3. In kind it is physicochemical. The procedure:
The solubility of TMA in different oils, surfactants, co-surfactants/co-solvent was determined by pouring an excess of TMA in a 2 mL glass vial containing 1 g of each excipient. The mixtures were vortexed and kept at 25 °C for 24 h, and then the samples were centrifuged at 15,000× g rpm for 10 min to remove the undissolved drug. The supernatant was diluted with a suitable solvent and the TMA was quantified by HPLC (Agilent 1220 Infinity LC, Agilent Technologies, Santa Clara, CA, USA) equipped with a UV-vis detector and a Zorbax 300SB C 18 column (4.6 × 250 mm, 5 µm, Agilent Technologies, Santa Clara, CA, USA). For the analysis of the organic solutions of TMA, a volume of 20 µL was injected into the column and a mixture of methanol and water (95:5) was used as mobile phase with a flow rate of 0.8 mL/min. Instead, for the analysis of aqueous solutions, 100 µL of sample was injected and a mixture 75:25 of methanol and water was used as mobile phase at a flow rate of 0.9 mL/min. The UV was set at a wavelength of 251 nm.

The nature of data set [2]: In vitro dissolution test in simplified FaSSIF and FeSSIF. In kind it is physicochemical. The settings on record: FeSSIF compared with FaSSIF. How it is done:
In vitro drug dissolution tests were performed using the USP 24 method with a dissolution apparatus 2 (Sotax AT7 Smart, Sotax, Allschwil, Switzerland) at 100 rpm. Dissolution tests were carried out under sink conditions at 37 ± 0.5 °C in 900 mL of two simplified simulated intestinal fluids to simulate the fed and fasted states. The composition of simplified FaSSIF (fasted-state simulated intestinal fluid) and FeSSIF (fed-state simulated intestinal fluid) buffers were those reported by Zoeller and Klein [24]. Samples (1 mL) were withdrawn at 5, 10, 15, 30, 45, 60, 90, 120, 240, and 300 min and the volume removed was replaced with an equal volume of temperature-equilibrated media. The samples were filtered through a 0.45 µm acetate cellulose filter and the TMA concentration was determined by HPLC-UV using the method reported in Section 2.3. The results were averaged from three replicated experiments.

The nature of data set [3]: Metabolic stability with human liver microsomes. The settings on record: 1 µM, 37 °C, NADPH, pH 7.4. The class given is in vitro ADME. The procedure:
The metabolic stability of TMA was assessed by incubating the compound with human liver microsomes (HLMs) (BD Bioscience, Franklin Lakes, NJ, USA), as already described. Briefly, TMA was dissolved in DMSO (1 µM) and incubated at 37 °C for 10 and 30 min in 0.1 M phosphate buffer containing 200 µg of microsomes and 10 mM NADPH, pH 7.4. At the end of incubation, the reaction was stopped by addition of 200 µL cold acetonitrile. After centrifugation for 10 min at 12,000× g (Hettich Mikro 120 benchtop centrifuge), supernatants were collected and analyzed by means of ultra-high pressure liquid chromatography coupled to high-resolution mass spectrometry (UHPLC-HRMS) to assess metabolic stability of TMAas described in Section 2.8.1. […]
The UHPLC-HRMS system was equipped with Agilent 1260 Infinity II LC System coupled to an Agilent 6545 LC/Q-TOF mass analyzer (Agilent Technologies, Palo Alto, Santa Clara, CA, USA). […] The mobile phase gradient profile was as follows (t in min): t0–3 2% B; t3–18 2–100% B, t18–20 100% B; t20–30 0% B. The MS conditions were: electrospray (ESI) ionization in positive mode, gas temperature 325 °C, drying gas 10 L/min, nebulizer 20 psi, sheath gas temperature 400 °C, sheath gas flow 12 L/min, VCap 4000 V, nozzle voltage 0 V, fragmentor 180 V. Centroid full scan mass spectra were recorded in the range 100–1000 m/z with a scan rate of 1 spectrum/s. […]
(In general: Liver microsomes are a subcellular fraction often used to study metabolism.)

A short description of data set [4]: In vivo pharmacokinetics after oral gavage. The settings on record: mice. The procedure:
All the experimental procedures involving animals were conducted in compliance with national and international guidelines for the handling and use of experimental animals (Authorization no. 853-2018-PR, 11 November 2018) and appropriately designed to minimize their pain or discomfort. All the animals were maintained in IVC cages under controlled conditions, with a 12/12 h dark/light cycle and free access to food and drink. For the pharmacokinetic analysis, a 20 mg/kg dose of TMA, suspended in water or dissolved in formulations A.1 and B.1, was administered to mice by oral gavage, after an overnight fast. Plasma samples (n = 3 per time point) were collected from the submandibular plexus before and 0.25, 0.5, 1, 2, 3, 4, 6, 24, and 48 h after the administration of TMA. The main PK parameters were calculated by means of the Microsoft Excel plug-in PK Solver, using standard formulae [25]. The data were analyzed using the software GraphPad Prism 8.0 (GraphPad Software Inc., San Diego, CA, USA) ver. 8.0, and, if not otherwise stated, are expressed as mean ± SD. Statistical analysis was performed using Student’s t test or one-way ANOVA, when appropriate, and p < 0.05 was considered statistically significant.
TMA was extracted from the samples by treating 100 µL of plasma with 300 µL of cold acetonitrile spiked with 80 nM of IS, and then the samples were centrifuged for 10 min at 12,000× g (Hettich Mikro 120 benchtop centrifuge) and 25 °C. 10 μL of the supernatant were injected into the UHPLC system. The quantification of TMA was carried out by external calibration of the normalized signals using a seven-point calibration curve obtained by spiking blank plasma with TMA in the range 20–3000 nM. […] The metabolites related to TMA were quantified in plasma by comparing the normalized area with the TMA calibration curve as there were no suitable analytical standards available. The data obtained should be considered semiquantitative, as it is not possible to ensure the same molar response factor for TMA and its metabolites under electrospray conditions.

Data set [5] is described as follows: Lipophilicity (Log p) and BCS classification from the literature. In kind it is physicochemical. The settings on record: inferred from Log p and low water solubility.
Where [6] appears, read: 20 mg/kg TMA, oral gavage, overnight fast, plasma TMA, mean ± S.D.

As usually defined, the Cmax is the highest concentration seen after dosing. By Tmax is commonly meant the time from dosing to the highest level. Turning to `Cc1cc(=O)oc2c1cc(C)c1occ(C)c12` [TMA, 4,6,4′-trimethylangelicin], the “TMA Solubility” value in data set [1] (in Capryol PGMC (co-surfactant)) came out at 7346 ± 380 µg/mL; in data set [1] (in Cremophor EL (surfactant)) it was 9091 ± 217 µg/mL; in data set [1] (in Ethanol (co-solvent)) it was 2509 ± 52 µg/mL; in data set [1] (in Labrafac Lipophile WL1349 (oil)) it was 4639 ± 170 µg/mL; in data set [1] (in Lauroglycol FCC (co-surfactant)), 6484 ± 92 µg/mL; in data set [1] (in Maisine CC (oil)) it was 6340 ± 377 µg/mL. The “TMA Solubility” value is recorded as 9568 ± 131 µg/mL in data set [1] (in Transcutol HP (co-solvent)) and 7040 ± 120 µg/mL in data set [1] (in Tween 80 (surfactant)). Moreover, the “Amount of free TMA dissolved” value in data set [2] is on record as “increases significantly”. For the same molecule, the “Initial amount of TMA metabolized by HLM enzymes” value in data set [3] (10 min) amounted to 67 ± 15%. Also, the “Degradation of TMA by HLM enzymes” value in data set [3] (30 min) was 90 ± 15%. In data set [4] (20 mg/kg TMA, oral gavage, overnight fast, mean ± S.D.), this molecule had a CL/F of 0.073 ± 0.029 mL/h/g. Also, the AUC0-inf in data set [4] (setting [6]) came to 0.29783 ± 0.11913 µM·h. The molecule also displayed a Cmax in data set [4] (setting [6]) of 186 ± 21.1 nM. Also, the time of peak concentration (Tmax) in data set [4] (setting [6]) is 0.38 ± 0.18 h. This molecule returned a t1/2 in data set [4] (setting [6]) of 1.71 ± 0.16 h. For the same molecule, the “BCS classification system class” value in data set [5] is reported as “class II”.
In the case of TMA-D, the “TMA-related metabolites in mouse plasma” value in data set [4] (20 mg/kg TMA oral, semiquantitative, TMA calibration curve, LOD about 10 nM) is “main metabolite”.
